What all share (assay type): cell-based
For one experiment, the system named is E. coli. In words: In-vitro antimicrobial test (MIC, NCCLS protocol). The settings on record: standard NCCLS protocol. From the text:
(§1) The activity of the compounds of the invention in-vitro can be illustrated as follows:
(§2) The test method was in accordance with the standard NCCLS protocol.

The next experiment relates to MRSA. Description: In-vitro antimicrobial test (MIC, NCCLS protocol). The settings on record: standard NCCLS protocol.
From the text: as §1, §2

Another experiment has as its system P. aeruginosa. In words: In-vitro antimicrobial test (MIC, NCCLS protocol). The settings on record: standard NCCLS protocol.
From the text: as §1, §2

In the next experiment the test system is S. pneumoniae. Description: In-vitro antimicrobial test (MIC, NCCLS protocol). The settings on record: standard NCCLS protocol.
From the text: as §1, §2

In another experiment the test system is VRE. In words: In-vitro antimicrobial test (MIC, NCCLS protocol). As to conditions: standard NCCLS protocol.
From the text: as §1, §2

The test system of another experiment is S. pneumoniae ATCC 6303. Description: % Killing of Streptococci at 4 MIC, 8 hrs. From the text:
(§3) Comparison of a typical compound of the invention vs S-(−)-9-fluoro-8-(4′-hydroxypiperidin-1-yl)-5-methyl-6,7-dihydro-1-oxo-1H-5H-benzo[i,j]quinolizine-2-carboxylic acid in terms of % Killing of Streptococci
(§4) As against this, a typical compound of the invention, which has an improved bactericidal power againt streptococci, consistently brings about killing of 99% of streptococcal population.

The next experiment deals with S. pyogenes ATCC 25147. In words: % Killing of Streptococci at 4 MIC, 8 hrs.
From the text: as §3, §4

For the next experiment, the system named is S. salivarius ATCC 13419. Description: % Killing of Streptococci at 4 MIC, 8 hrs.
From the text: as §3, §4

The test system of a further experiment is S. sanguis ATCC 10556. In words: % Killing of Streptococci at 4 MIC, 8 hrs.
From the text: as §3, §4

For a further experiment, the system named is streptococcal population. In words: % Killing of Streptococci, summary over strains. The settings on record: exposed to 4×MIC concentrations for 8 hours; depending upon the streptococcal strain.
From the text: as §3, §4

In brackets after ≈: the same amount, converted by molar mass.

What is called MIC is the least concentration at which growth counts as inhibited. A high value points to a need for much substance.

As for `CC1CN(c2c(F)cc3c(=O)c(C(=O)O)cn4c3c2CC[C@@H]4C)CCC1O` (mixture of isomers) [Compound A, S-(−)-9-fluoro-6,7-dihydro-8-{trans-4-(RS)-hydroxy-3-(RS)-methylpiperidin-1-yl}-5-methyl-1-oxo-1H,5H-benzo[i,j]quinolizine-2-carboxylic acid], the MIC with E. coli is 0.2 µg/mL (≈ 0.534 µM); in the experiment on MRSA it was 0.4 µg/mL (≈ 1.07 µM); against P. aeruginosa, 3.12 µg/mL (≈ 8.33 µM); against S. pneumoniae, 0.2 µg/mL (≈ 0.534 µM); in the experiment on VRE it was 6.25 µg/mL (≈ 16.7 µM).

For `CC1CN(c2c(F)cc3c(=O)c(C(=O)O)cn4c3c2CC[C@@H]4C)CCC1O` (mixture of isomers) [Compound B], the MIC worked out at 0.2 µg/mL (≈ 0.534 µM) against E. coli; 0.8 µg/mL (≈ 2.14 µM) in the experiment on MRSA; 6.25 µg/mL (≈ 16.7 µM) in the experiment on P. aeruginosa; 0.2 µg/mL (≈ 0.534 µM) against S. pneumoniae; 6.25 µg/mL (≈ 16.7 µM) with VRE.

In the case of `CC1CCc2c(N3CCC(O)CC3)c(F)cc3c(=O)c(C(=O)O)cn1c23` (racemic) [Ref. 1, RS(±)-9-fluoro-8-(4′-hydroxypiperidin-1-yl)-5-methyl-6,7-dihydro-1-oxo-1H-5H-benzo[i,j]quinolizine-2-carboxylic acid, reference compound], the MIC amounted to 0.4 µg/mL (≈ 1.11 µM) in the experiment with E. coli; 1.56 µg/mL (≈ 4.33 µM) in the experiment with MRSA; 6.25 µg/mL (≈ 17.3 µM) in the experiment on P. aeruginosa; 0.4 µg/mL (≈ 1.11 µM) against S. pneumoniae; 12.5 µg/mL (≈ 34.7 µM) against VRE.

With `C[C@H]1CN(c2c(F)cc3c(=O)c(C(=O)O)cn4c3c2CC[C@@H]4C)CC[C@H]1O` (relative stereo) [Compound C, S-(−)-9-fluoro-6,7-dihydro-8-{cis-(−)-4-R-hydroxy-3-S-methylpiperidin-1-yl}-5-methyl-1-oxo-1H,5H-benzo[i,j]quinolizine-2-carboxylic acid], the MIC came out at 0.1 µg/mL (≈ 0.267 µM) against E. coli; 0.8 µg/mL (≈ 2.14 µM) against MRSA; 6.25 µg/mL (≈ 16.7 µM) against P. aeruginosa; 0.1 µg/mL (≈ 0.267 µM) in the experiment with S. pneumoniae; 6.25 µg/mL (≈ 16.7 µM) against VRE.

For `C[C@@H]1CN(c2c(F)cc3c(=O)c(C(=O)O)cn4c3c2CC[C@@H]4C)CC[C@@H]1O` (relative stereo) [Compound D, S-(−)-9-fluoro-6,7-dihydro-8-{cis-(+)-4-S-hydroxy-3-R-methylpiperidin-1-yl}-5-methyl-1-oxo-1H,5H-benzo[i,j]quinolizine-2-carboxylic acid], the MIC in the experiment on E. coli was found to be 0.2 µg/mL (≈ 0.534 µM); in the experiment with MRSA, 0.8 µg/mL (≈ 2.14 µM); in the experiment on P. aeruginosa, 6.25 µg/mL (≈ 16.7 µM); against S. pneumoniae, 0.8 µg/mL (≈ 2.14 µM); against VRE, 6.25 µg/mL (≈ 16.7 µM).

With `CCC1CN(c2c(F)cc3c(=O)c(C(=O)O)cn4c3c2CC[C@@H]4C)CCC1O` (stereo partly drawn) [Compound E, S-(−)-9-fluoro-6,7-dihydro-8-(3-ethyl-4-hydroxypiperidin-1-yl)-5-methyl-1-oxo-1H,5H-benzo[i,j]quinolizine-2-carboxylic acid], the MIC against E. coli is 0.8 µg/mL (≈ 2.06 µM); in the experiment with MRSA it was 1.56 µg/mL (≈ 4.02 µM); with P. aeruginosa, over 12.5 µg/mL; against S. pneumoniae, 0.2 µg/mL (≈ 0.515 µM); in the experiment on VRE, 12.5 µg/mL (≈ 32.2 µM).

In the case of `C[C@H]1CCc2c(N3CCC(O)CC3)c(F)cc3c(=O)c(C(=O)O)cn1c23` [Ref. 2, S-(−)-9-fluoro-8-(4′-hydroxypiperidin-1-yl)-5-methyl-6,7-dihydro-1-oxo-1H-5H-benzo[i,j]quinolizine-2-carboxylic acid, reference compound], the MIC against E. coli was 0.2 µg/mL (≈ 0.555 µM); against MRSA it was 0.8 µg/mL (≈ 2.22 µM); against P. aeruginosa it was 3.12 µg/mL (≈ 8.66 µM); against S. pneumoniae it was 0.2 µg/mL (≈ 0.555 µM); in the experiment with VRE, 6.25 µg/mL (≈ 17.3 µM). The “4 MIC-% Kill at 8 hrs.” value in the experiment with S. pneumoniae ATCC 6303 is listed as 50%; in the experiment on S. pyogenes ATCC 25147, 45.4%; with S. salivarius ATCC 13419 it was 0%; with S. sanguis ATCC 10556 it was 40%. Besides, the “killing of streptococcal population” value with streptococcal population is at most 50%.

Consider `CC1CN(c2c(F)cc3c(=O)c(C(=O)O)cn4c3c2CC[C@@H]4C)CCC1O` (stereo partly drawn) [Typical compound of the invention, S-(-)-9-fluoro-6,7-dihydro-8-(4-hydroxy-3-methylpiperidin-1-yl)-5-methyl-1-oxo-1H,5H-benzo[i,j]quinolizine-2-carboxylic acid], for which the “4 MIC-% Kill at 8 hrs.” value amounted to 99.8% in the experiment on S. pneumoniae ATCC 6303, 98.4% in the experiment on S. pyogenes ATCC 25147, 99.7% with S. salivarius ATCC 13419 and 98.6% with S. sanguis ATCC 10556. In addition, the “killing of streptococcal population” value in the experiment on streptococcal population is 99%.

These data come from patent US6608078B2, “Antibacterial chiral 8-(substituted piperidino)-benzo [i,j] quinolizines, processes, compositions and methods of treatment” (Wockhardt Limited, priority 2000, dated 2003).
